US10047151B2, “Methods for the treatment of cancer and inflammatory diseases using cereblon as a predictor” (Celgene Corporation, priority 2011, dated 2018)
One block for each molecule: values may come before it.

Key:
[1] = system: Jurkat IL-2; assay: Jurkat IL-2 induction by Compound A; assay type: cell-based
[2] = system: TNF; assay: TNF inhibition by Compound A; assay type: cell-based
[3] = system: IRF4; assay: IRF4 protein level in H929 cells (Western blot); assay type: cell-based
Description: In H929 cells, the cell cycle arrest in G1 phase by the drugs coincides with a reduction of tumor suppressor, pRb, phosphorylation and the oncogene and myeloma survival factor IRF4.

[4] = system: T cells; assay: Ubiscan ubiquitinated peptide quantification in T cells; assay type: cell-based
Description: The effects of lenalidomide and pomalidomide on protein ubiquination were investigated using CST Ubiscan technology. Treated samples were sent to Cell Signaling Technology for ubiquinated peptide enrichment and quantification by LC/MS/MS.

[5] = system: H929 cells; assay: Cell cycle progression (cells in S phase) in siRNA-transfected H929 cells; assay type: cell-based; conditions: 72 h treatment
Procedure: The effect of CRBN in H929 cells was also evaluated. H929 cells were transfected with mock, negative control siRNA and CRBN-siRNA-7 for 24, 48, 72 and 96 h. Cells were treated 24 h after transfection with DMSO (0.1%), pomalidomide (1 μM), lenalidomide (10 μM) or 3-(5-amino-2-methyl-4-oxo-4H-quinazolin-3-yl)-piperidine-2,6-dione (“Compound B”) for 1, 2, 3 days and the effect on cell cycle and proliferation investigated. Lenalidomide, pomalidomide and Compound B induced a delay of cell cycle progression, measured as the decrease of the number of cells in S phase, in control mock and negative control siRNA-transfected cells after 72 h treatment (FIG. 2C). Knockdown of CRBN markedly abrogated immunomodulatory drugs-induced delay in cell cycle progression in H929 cells (FIG. 2C) from of 50 to 4% for lenalidomide, from 70 to 15% for pomalidomide, and from 65 to 22% for Compound B.

[6] = system: pRb; assay: pRb phosphorylation in H929 cells (Western blot); assay type: cell-based
[7] = system: IRF4; assay: IRF4 protein expression in ABC-DLBCL cells (Western blot); assay type: cell-based; conditions: OCI-Ly3 cells; 1-3 day treatments
Procedure: (§1) Cells were treated with test compounds or 0.1% DMSO for indicated times. Following incubation, cells were collected, pelleted with centrifugation, and immediately lysed in 0.1 ml lysis buffer containing 10 mM Tris-HCl pH 8.0, 10 mM EDTA, 150 mM NaCl, 1% NP-40, 0.5% SDS, 1 mM DTT, 1 mM Na3VO4, plus Complete protease inhibitor cocktail (Roche Applied Science, Indianapolis, Ind.), then processed with a Qiashredder™ (Qiagen, Valencia, Calif.) for 1 minute and frozen on dry ice. Samples were diluted with 6×SDS sample buffer and then boiled for 5 min. Approximately 30 μl of this mixture was loaded per lane on a Criterion Precast 4-12% Tris-HCl gel (Bio-Rad, Hercules, Calif.), electrophoresed, and transferred to nitrocellulose membranes (Bio-Rad, Hercules, Calif.). The membranes were blocked for 1 hour at room temperature using blocking buffer (LI-COR Biosciences, Lincoln, Nebr.), then incubated overnight at 4° C. with antibodies against either BCL-10, IRF4, CRBN or β-actin. Membranes were washed and incubated with IRDye Secondary Antibodies (1:30,000) for 1 hour at room temperature. A standard protocol was then followed for signal detection, using the Odyssey® Infrared Imaging System and software (LI-COR Biosciences, Lincoln, Nebr.).
To understand the molecular mechanism of lenalidomide on ABC-DLBCL cells, the effects of lenalidomide on IRF4 expression in these cells were investigated. […] Lenalidomide-induced decrease of IRF4 expression occurred as early as 1 day of drug treatment, with similar kinetics to that of the inhibitors (zVRPR-fmk and LY-333,531, respectively) of MALT1 and PKCβ, two key enzymes involved in NF-κB activation upon BCR engagement in B cells.

[8] = system: CARD11-BCL-10-MALT1 (CBM) complex; assay: MALT1-induced BCL-10 cleavage (CBM complex activity) in ABC-DLBCL cells; assay type: cell-based; conditions: OCI-Ly3 cells
Procedure: as §1
This mutation has been reported to cause constitutive formation and activation of CARD11-BCL-10-MALT1 (CBM) complex of BCR signaling pathway, leading to NF-κB overactivation in lymphoma cells. See Lenz, G., et al., Science 2008, 319: 1676-9; Thome, M. et al., Cold Spring Harb Perspect Biol. 2010; 2: a003004. To investigate the potential involvement of CBM complex in lenalidomide-induced IRF4 inhibition in these cells, the effect of lenalidomide on the complex activity was examined by measuring MALT1 paracaspase enzymatic activity. MALT1 is activated upon association with BCL-10 and CARD11 to form active CBM complex and then cleaves its binding partners, such as BCL-10.

[9] = biological target: T1, CRBN (Homo sapiens, UniProt Q96SW2); assay: Binding of compounds to CRBN
[10] = system: poly-ubiquitin chains; assay: Global polyubiquitination by immunofluorescence in H929 cells; assay type: cell-based; conditions: 1 μM, 30 minutes
Procedure: Specific antibodies for poly-ubiquitin chains were used to study the effect of immunomodulatory drugs on global levels of ubiquitination. H929 cells were treated with lenalidomide (1 μM), pomalidomide (1 μM) or proteasome inhibitor MG132. After 30 minutes cells were process for immunofluorescence. Global levels of K63-linked polyubiquitination were quantified by Cellomics.

[11] = system: U266; assay: Ubiscan ubiquitinated peptide quantification in U266; assay type: cell-based
Description: The effects of lenalidomide and pomalidomide on protein ubiquination were investigated using CST Ubiscan technology. Treated samples were sent to Cell Signaling Technology for ubiquinated peptide enrichment and quantification by LC/MS/MS. […] In the MG132 combo, more ubiquinated peptides are observed (compared with their controls). […] These peptides correspond to 176 unique proteins. Top few groups are: nucleosome, chromatin, protein-DNA complex assembly, Histone H2A. Among the 176 proteins, we found five proteins that belong to “ubiquitin-protein ligase activity” category, they are MDM2, HERC2, UBE2D3 (only by pomalidomide), UBE2N (lenalidomide only), UBE2M (both). Results for hits categorized by conditions are shown in FIGS. 8 & 9 (without MG132) and FIGS. 10 & 11 (with MG132).

[12] = system: CRBN; assay: CRBN mRNA and protein expression after drug treatment (RT-PCR, Western blot); assay type: cell-based; conditions: H929 and U266B1 cells; pomalidomide 1 μM, lenalidomide 10 μM
[13] = system: U266B1 cells; assay: Gene expression profile by microarray in U266B1 cells; assay type: cell-based; conditions: negative control siRNA-transfected U266B1 cells; pomalidomide 1 μM, lenalidomide 10 μM; ±1.7 fold, P<0.05
Procedure: Gene expression profile using microarray technology identified 759 or 609 genes differentially modulated in negative control siRNA-transfected U266B1 cells treated with pomalidomide (1 μM) or lenalidomide (10 μM) compared to DMSO treated control (±1.7 fold; P<0.05 ANOVA p-value) (FIGS. 5A & 5B).

[14] = system: p21^WAF-1; assay: p21WAF-1 mRNA and protein levels in U266B1 cells; assay type: cell-based; conditions: U266B1, control mock and negative control siRNA-transfected cells; pomalidomide 1 μM, lenalidomide 10 μM
Procedure: To further investigate the effects of CRBN on the cell cycle arrest induced by drugs we used RT-PCR and Western blot analysis to measure the levels of key cell cycle and apoptotic regulators. U266B1 cells were transfected with mock, negative control siRNA, CRBN-siRNA-7 and CRBN-siRNA-11 for 24, 48, 72 and 96 h (FIG. 3A). Cells were treated 24 h after transfection with DMSO (0.1%), pomalidomide (1 μM) and lenalidomide (10 μM) for 1, 2, 3 days and the effect on mRNA and protein levels of the cyclin-dependent kinase (CDK) inhibitor p21^WAF-1 were evaluated. It has been shown that lenalidomide- and pomalidomide-induced cell cycle arrest is dependent on up-regulation of p21^WAF-1 in […]. […] However, knockdown of CRBN prevents the induction of p21^WAF-1 indicating the successful abrogation of G1 arrest and renewal of S phase progression (FIGS. 3C & 3D).

[15] = system: U266B1 cells; assay: Cell cycle progression (cells in S phase) in siRNA-transfected U266B1 cells; assay type: cell-based; conditions: control mock and negative control siRNA-transfected cells; average of 3 days of treatment; pomalidomide 1 μM, lenalidomide 10 μM
Procedure: Drugs such as lenalidomide and pomalidomide have direct anti-proliferative activity against MM cells by inducing cell cycle arrest in G1 phase, followed by a decrease in viability. To study the role of CRBN in lenalidomide and other drugs anti-proliferative activities, H929 and U266B1 cells, two sensitive myeloma lines, were transfected with CRBN-siRNAs or control siRNAs for 24, 48, 72 and 96 hours. Cells were treated 24 h after transfection with DMSO (0.1%), pomalidomide (1 μM) and lenalidomide (10 μM) for 1, 2, 3 days to evaluated the compound effect on CRBN protein, mRNA expression and the effect on cell cycle and proliferation. […] CRBN down regulation was confirmed by RT-PCR and Western blot using the CRBN70 antibody (FIG. 1).
Knockdown of CRBN markedly abrogated the lenalidomide and pomalidomide-induced delay in cell cycle progression in U266B1 cells. Id.

[16] = biological target: T1, CRBN; assay: Denaturing immunoblot with CGN-6-4-5; assay type: binding; design: endogenous in cells; host or cells: DF15 myeloma cells (endogenous); HEK293 cells expressing recombinant flag-tagged CRBN on the same blot
Procedure: CGN-6-4-5 was diluted 1:10,000 dilution in 0.1% Tween PBS buffer. An exemplary immunoblot with myeloma cells containing endogenous CRBN (DF15), DF15R with no CRBN and HEK293 cells expressing recombinant flag-tagged CRBN is shown in FIG. 38. Peptide neutralization was performed by combining antibody with a five-fold (by weight) excess of blocking peptide in 500 μl PBS and incubating with constant rotation at room temperature for 2 hours.

[17] = H929 cells with knockdown of CRBN
[18] = control mock and negative control siRNA-transfected H929 cells

T1 sequence (Q96SW2 whole entry): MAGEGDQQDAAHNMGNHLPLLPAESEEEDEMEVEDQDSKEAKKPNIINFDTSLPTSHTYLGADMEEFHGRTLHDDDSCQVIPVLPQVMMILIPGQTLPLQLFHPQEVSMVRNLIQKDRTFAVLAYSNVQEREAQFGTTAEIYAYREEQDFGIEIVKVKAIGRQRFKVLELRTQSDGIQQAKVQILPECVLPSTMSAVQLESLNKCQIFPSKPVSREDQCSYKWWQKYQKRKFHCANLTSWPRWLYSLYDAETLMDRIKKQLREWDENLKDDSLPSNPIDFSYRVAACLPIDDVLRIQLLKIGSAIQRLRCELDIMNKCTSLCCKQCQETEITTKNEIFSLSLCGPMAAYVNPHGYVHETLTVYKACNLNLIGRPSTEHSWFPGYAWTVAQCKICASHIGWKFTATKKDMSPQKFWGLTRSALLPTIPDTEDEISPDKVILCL

IC50 [2]: 622 nM
Molecule: Cl.NCCC(=O)NCc1cccc2c1C(=O)N(C1CCC(=O)NC1=O)C2=O (stereo not drawn) [Compound A]
Jurkat IL-2 EC200 [1]: 3.47 µM

Molecule: Cc1nc2cccc(N)c2c(=O)n1C1CCC(=O)NC1=O (stereo not drawn) [Compound B, 3-(5-amino-2-methyl-4-oxo-4H-quinazolin-3-yl)-piperidine-2,6-dione]
total level of protein IRF4 [3]: decreased
Ub-proteins increased in abundance [4]: IKZF3, RPL19, PCM1 and NEDD8
proteins decreased in abundance [4]: GNB2L1 and HNRNPR
ubiquinated peptides of greater abundance vs. DMSO control [4]: SECTM1 and ZC3H15
delay in cell cycle progression (decrease of the number of cells in S phase) [5, 17]: 22%
delay in cell cycle progression (decrease of the number of cells in S phase) [5, 18]: 65%
phosphorylation of pRB [6]: decreased

Molecule: CN(C)C[C@@H]1CCn2cc(c3ccccc32)C2=C(C(=O)NC2=O)c2cn(c3ccccc23)CCO1 [PKCβ inhibitor, LY-333,531]
IRF4 levels [7]: neither lenalidomide nor the PKCβ inhibitor had any appreciable effect
BCL-10 cleavage [8]: neither the PKCβ inhibitor nor lenalidomide had any effect

Molecule: C[C@]1(N2C(=O)c3cccc(N)c3C2=O)CCC(=O)NC1=O [S-methyl-pomalidomide]
affinity for CRBN (enantiomers compared) [9]: greater affinity for CRBN than R-methyl-pomalidomide

Molecule: Nc1cccc2c1C(=O)N(C1CCC(=O)NC1=O)C2=O (stereo not drawn) [pomalidomide, 4-amino-2-(2,6-dioxopiperidin-3-yl)-1H-isoindole-1,3-dione]
total level of protein IRF4 [3]: decreased
K-63-linked ubiquitination [10]: but not K-63-linked ubiquitination
total K48-linked polyubiquitination [10]: decrease
Ub-proteins increased in abundance [11]: IKZF3, RPL19, PCM1 and NEDD8
proteins decreased in abundance [11]: GNB2L1 and HNRNPR
mRNA and protein expression of CRBN [12]: affected neither mRNA nor protein expression of CRBN significantly
genes differentially modulated compared to DMSO treated control [13]: 759 genes
delay in cell cycle progression (decrease of the number of cells in S phase) [5, 17]: 15%
delay in cell cycle progression (decrease of the number of cells in S phase) [5, 18]: 70%
p21 level [14]: up-regulated
delay of cell cycle progression, measured as the decrease of the number of cells in S phase [15]: 50%
phosphorylation of pRB [6]: decreased

binding to CRBN [9]: did not
Molecule: O=C1NC(=O)c2ccccc21 [pthalimide]

Molecule: zVRPR-fmk [MALT1 inhibitor]
IRF4 levels [7]: complete inhibition

B1: CGN-6-4-5: rabbit monoclonal anti-CRBN antibody, heavy chain SEQ ID NO:9, light chain SEQ ID NO:11 (antibody)
heavy: METGLRWLLLVAVLKGVQCQSVEESGGRLVTPGTPLTLTCTVSGFSLSRYGVSWVRQAPGKGLEHIGYIYSDPGMTFYATWAKGRFTISKTSSTTVDLKMTSPTIEDTATYFCARGTPLASYSTWGPGTLVTISLGQPKAPSVFPLAPCCGDTPSSTVTLGCLVKGYLPEPVTVTWNSGTLTNGVRTFPSVRQSSGLYSLSSVVSVTSSSQPVTCNVAHPATNTKVDKTVAPSTCSKPTCPPPELLGGPSVFIFPPKPKDTLMISRTPEVTCVVVDVSQDDPEVQFTWYINNEQVRTARPPLREQQFNSTIRVVSTLPIAHQDWLRGKEFKCKVHNKALPAPIEKTISKARGQPLEPKVYTMGPPREELSSRSVSLTCMINGFYPSDISVEWEKNGKAEDNYKTTPAVLDSDGSYFLYSKLSVPTSEWQRGDVFTCSVMHEALHNHYTQKSISRSPGK
light: MDTRAPTQLLGLLLLWLPGATFAQVLTQTPASVSAAVGGTVTINCQSSENIYKNNYLSWFQQKPGQPPKLLIYQASTLASGVPSRFKGSGSGTRFSLTISDLECDDAATYYCAGGYSGNIFTFGGGTEVVVKGDPVAPTVLIFPPAADQVATGTVTIVCVANKYFPDVTVTWEVDGTTQTTGIENSKTPQNSADCTYNLSSTLTLTSTQYNSHKEYTCKVTQGTTSVVQSFNRGDC
recognition of CRBN on denaturing immunoblots [16]: specifically recognizes the full-length 51 kDa human CRBN protein
